Measured values published in patent US20240174723A1, “STAPLED ANTIMICROBIAL PEPTIDES (STAMPS) AND USES THEREOF” (Lytica Therapeutics, Inc., priority 2021, published 2024).
In brackets after ≈: the same amount, converted by molar mass. Positions of bridges follow the written chain, without caps; N, C: chain ends. Non-standard residues stand in square brackets, D forms with d. Residues, ends and D or L forms follow the SMILES beside them. S5 = C=CCCC[C@](C)(N)C(=O)O; Pra = C#CC[C@H](N)C(=O)O; Dab = NCC[C@H](N)C(=O)O; Dap = NC[C@H](N)C(=O)O

Legend:
P. aeruginosa = type: cell-based, Pseudomonas aeruginosa
Method: (§1) Antimicrobial Activity Assay: The following microbroth dilution protocol was adapted from CLSI to determine the minimum inhibitory concentration (MIC) of StAMPs. Briefly, Mueller-Hinton broth (MHB) or cation-adjusted Mueller-Hinton broth (MHB II) was prepared and autoclaved. Then, a colony of bacterial cells was picked and grown overnight in broth at 37° C. and then diluted and allowed to grow again for 3-4 hours. Serial dilutions of peptide stocks in water (10 μl) were prepared using clear round-bottom polypropylene 96-well plates. Then 90 μl of bacteria in broth was added to give a final inoculum of 5×10^5 CFU/ml. The plates were then covered with porous tape to reduce evaporation and incubated for 20-24 hours at 37° C. The MIC was the minimum peptide concentration at which no visible bacterial growth was observed.
(§2) Renal toxicity was measured after 90 minutes of incubation, while liver toxicity was measured after 48 hours of incubation with StAMPs. N/A=not tested. The following apply to all peptides (i.e., StAMPs) listed in Tables A-C: Crosslinks (X^1—X^2 and X^3—X^4): (alk); N-terminus: —NH2; C-terminus: amidated with —NH2; counterion: Cl^−. The following apply to all peptides (i.e., StAMPs) listed in Table D: Crosslinks (X^1—X^2 and X^3—X^4): (alk); N-terminus: —NH2; C-terminus: as shown in table; counterion: Cl^−.
StAMP Micelle Formulation: DSPE-MPEG(2000) was suspended in buffered saline at 50-100 mg/mL overnight. StAMP stock solutions at 5-20 mg/mL in buffered saline were prepared and equal volumes of micelle and StAMP stock solution were mixed at the desired StAMP:Lipid ratio. Suspensions were allowed to sit for 5-10 minutes at room temperature before being used in in vitro and in vivo assays. […]

E. coli = type: cell-based, Escherichia coli
Method: as §1, §2

S. aureus = type: cell-based, Staphylococcus aureus
Method: as §1, §2

K. pneumoniae = type: cell-based, Klebsiella pneumoniae
Method: as §1, §2

in vitro = type: cell-based; conditions: human, Inhibitory Concentration at 50% Cytotoxicity (IC50) Human Liver Cells (HepG2)
Method: Cell culture: RPTEC were maintained in MEM media supplemented with growth factors. HEPG2 cell line was maintained in Eagle's Minimum Essential Medium (EMEM) supplemented with fetal bovine serum to a final concentration of 10%.
48 hours cytotoxicity assay: Cells were plated in a 96-well format, and after 4 hour incubation to allow attachment, serial dilutions of StAMPs from a 5 mg/mL water stock, or vehicle, were then added to the cells in a final volume of 100 μl. After incubating at 37° C. for 48 hours, 100 μl of CellTiter-Glo® reagent was added to the cells, and the plates were incubated 10 minutes at room temperature. Luminescence was then measured on a microplate reader.
as §2

A. baumannii = type: cell-based, Acinetobacter baumannii
Method: as §1, §2

Row | SMILES | Minimum Inhibitory Concentration (MIC) P. aeruginosa (P. aeruginosa) [µg/mL] | Minimum Inhibitory Concentration (MIC) E. coli (E. coli) [µg/mL] | Minimum Inhibitory Concentration (MIC) S. aureus (S. aureus) [µg/mL] | Minimum Inhibitory Concentration (MIC) K. pneumoniae (K. pneumoniae) [µg/mL] | Minimum Inhibitory Concentration (MIC) A. baumannii (A. baumannii) [µg/mL] | IC50 at 48 hours (in vitro) [µg/mL]
1 | CC(C)[C@@H]1NC(=O)[C@@](C)(NC(=O)[C@H](C)NC(=O)[C@H](CCCCN)NC(=O)CNC(=O)[C@H](Cc2ccccc2)NC(=O)[C@H](CCCCN)NC(=O)[C@H](CCCCN)NC(=O)[C@H](CCCCN)NC(=O)[C@H](CCCCN)NC(=O)[C@H](CN)NC(=O)[C@]2(C)CCCC=CCCC[C@](C)(NC(=O)CN)C(=O)NCC(=O)N[C@@H](CCCCN)C(=O)N[C@@H](Cc3ccccc3)C(=O)N2)CCCC=CCCC[C@@](C)(C(=O)N[C@@H](C)C(=O)N[C@@H](CCCCN)C(=O)N[C@@H](CCCCN)C(N)=O)NC(=O)[C@H](CCC(=O)O)NC(=O)CNC1=O [compound 46] (H-G[S5]GKF[S5][Dap]KKKKFGKA[S5]VGE[S5]AKK-NH2; staple 2-6, 16-20) | 4 | 2 | 64 | 8 | 2 | 299 (≈ 119 µM)
2 | CC(C)[C@@H]1NC(=O)[C@@](C)(NC(=O)[C@H](C)NC(=O)[C@H](CCCCN)NC(=O)CNC(=O)[C@H](Cc2ccccc2)NC(=O)[C@H](CCCCN)NC(=O)[C@H](CCCCN)NC(=O)[C@H](CCCCN)NC(=O)[C@H](CCCCN)NC(=O)[C@H](CCCCN)NC(=O)[C@]2(C)CCCC=CCCC[C@](C)(NC(=O)CN)C(=O)NCC(=O)N[C@@H](CN)C(=O)N[C@@H](Cc3ccccc3)C(=O)N2)CCCC=CCCC[C@@](C)(C(=O)N[C@@H](C)C(=O)N[C@@H](CCCCN)C(=O)N[C@@H](CCCCN)C(N)=O)NC(=O)[C@H](CCC(=O)O)NC(=O)CNC1=O [compound 45] (H-G[S5]G[Dap]F[S5]KKKKKFGKA[S5]VGE[S5]AKK-NH2; staple 2-6, 16-20) | 4 | 2 | >64 | 4 | 2 | 104 (≈ 41.2 µM)
3 | CC(C)[C@@H]1NC(=O)[C@@](C)(NC(=O)[C@H](C)NC(=O)[C@H](CCCCN)NC(=O)CNC(=O)[C@H](Cc2ccccc2)NC(=O)[C@H](CCCCN)NC(=O)[C@H](CCN)NC(=O)[C@H](CCCCN)NC(=O)[C@H](CCCCN)NC(=O)[C@H](CCCCN)NC(=O)[C@]2(C)CCCC=CCCC[C@](C)(NC(=O)CN)C(=O)NCC(=O)N[C@@H](CCCCN)C(=O)N[C@@H](Cc3ccccc3)C(=O)N2)CCCC=CCCC[C@@](C)(C(=O)N[C@@H](C)C(=O)N[C@@H](CCCCN)C(=O)N[C@@H](CCCCN)C(N)=O)NC(=O)[C@H](CCC(=O)O)NC(=O)CNC1=O [compound 43] (H-G[S5]GKF[S5]KKK[Dab]KFGKA[S5]VGE[S5]AKK-NH2; staple 2-6, 16-20) | 4 | 4 | 32 | 8 | 2 | 127 (≈ 50.1 µM)
4 | CC(C)[C@@H]1NC(=O)[C@@](C)(NC(=O)[C@H](C)NC(=O)[C@H](CCCCN)NC(=O)CNC(=O)[C@H](Cc2ccccc2)NC(=O)[C@H](CCCCN)NC(=O)[C@H](CCCCN)NC(=O)[C@H](CCCCN)NC(=O)[C@H](CCCCN)NC(=O)[C@H](CCCCN)NC(=O)[C@]2(C)CCCC=CCCC[C@](C)(NC(=O)CN)C(=O)NCC(=O)N[C@@H](CCCCN)C(=O)N[C@@H](Cc3ccccc3)C(=O)N2)CCCC=CCCC[C@@](C)(C(=O)N[C@@H](C)C(=O)N[C@@H](CCN)C(=O)N[C@@H](CCCCN)C(N)=O)NC(=O)[C@H](CCC(=O)O)NC(=O)CNC1=O [compound 44] (H-G[S5]GKF[S5]KKKKKFGKA[S5]VGE[S5]A[Dab]K-NH2; staple 2-6, 16-20) | 4 | 2 | 32 | 6 | 2 | 87 (≈ 34.3 µM)

Now from value to compound, other results behind:

Row | Minimum Inhibitory Concentration (MIC) P. aeruginosa (P. aeruginosa) [µg/mL] | Minimum Inhibitory Concentration (MIC) E. coli (E. coli) [µg/mL] | Minimum Inhibitory Concentration (MIC) S. aureus (S. aureus) [µg/mL] | Minimum Inhibitory Concentration (MIC) K. pneumoniae (K. pneumoniae) [µg/mL] | Minimum Inhibitory Concentration (MIC) A. baumannii (A. baumannii) [µg/mL] | SMILES | IC50 at 48 hours (in vitro) [µg/mL]
5 | 1 | 2 | >64 | 32 | 1 | CC(C)[C@@H]1NC(=O)[C@@](C)(NC(=O)[C@H](C)NC(=O)[C@H](CCCCN)NC(=O)CNC(=O)[C@H](Cc2ccccc2)NC(=O)[C@H](CCCCN)NC(=O)[C@H](CCCCN)NC(=O)[C@H](CCCCN)NC(=O)[C@H](CCCCN)NC(=O)[C@H](CCCCN)NC(=O)[C@]2(C)CCCC=CCCC[C@](C)(NC(=O)CN)C(=O)NCC(=O)N[C@@H](CCCCN)C(=O)N[C@@H](Cc3ccccc3)C(=O)N2)CCCC=CCCC[C@@](C)(C(=O)N[C@@H](C)C(=O)N[C@@H](CCCCN)C(=O)N[C@@H](CCCCN)C(=O)NCC(=O)NCC(=O)N[C@@H](CCC(=O)O)C(N)=O)NC(=O)[C@H](CCC(=O)O)NC(=O)[C@H](CO)NC1=O [compound 93] (H-G[S5]GKF[S5]KKKKKFGKA[S5]VSE[S5]AKKGGE-NH2; staple 2-6, 16-20) | > 200
6 | 4 | 8 | >64 | >64 | 8 | CC(C)[C@@H]1NC(=O)[C@@](C)(NC(=O)[C@H](C)NC(=O)[C@H](CCCCN)NC(=O)CNC(=O)[C@H](Cc2ccccc2)NC(=O)[C@H](CCCCN)NC(=O)[C@H](CCCCN)NC(=O)[C@H](CCCCN)NC(=O)[C@H](CCCCN)NC(=O)[C@H](CN)NC(=O)[C@]2(C)CCCC=CCCC[C@](C)(NC(=O)CN)C(=O)NCC(=O)N[C@@H](CCCCN)C(=O)N[C@@H](Cc3ccccc3)C(=O)N2)CCCC=CCCC[C@@](C)(C(=O)N[C@@H](C)C(=O)N[C@@H](CCCCN)C(=O)N[C@@H](CCCCN)C(=O)NCC(=O)NCC(=O)N[C@@H](CCC(=O)O)C(N)=O)NC(=O)[C@H](CCC(=O)O)NC(=O)CNC1=O [compound 80] (H-G[S5]GKF[S5][Dap]KKKKFGKA[S5]VGE[S5]AKKGGE-NH2; staple 2-6, 16-20) | > 200
7 | 4 | 4 | >64 | 64 | 2 | C#CC[C@H](NC(=O)[C@H](CCC(=O)O)NC(=O)CNC(=O)CNC(=O)[C@H](CCCCN)NC(=O)[C@H](CCCCN)NC(=O)[C@H](C)NC(=O)[C@]1(C)CCCC=CCCC[C@](C)(NC(=O)[C@H](C)NC(=O)[C@H](CCCCN)NC(=O)CNC(=O)[C@H](Cc2ccccc2)NC(=O)[C@H](CCCCN)NC(=O)[C@H](CCCCN)NC(=O)[C@H](CCCCN)NC(=O)[C@H](CCCCN)NC(=O)[C@H](CCCCN)NC(=O)[C@]2(C)CCCC=CCCC[C@](C)(NC(=O)CN)C(=O)NCC(=O)N[C@@H](CCCCN)C(=O)N[C@@H](Cc3ccccc3)C(=O)N2)C(=O)N[C@@H](C(C)C)C(=O)NCC(=O)N[C@@H](CCC(=O)O)C(=O)N1)C(N)=O [compound 95] (H-G[S5]GKF[S5]KKKKKFGKA[S5]VGE[S5]AKKGGE[Pra]-NH2; staple 2-6, 16-20) | > 200
8 | 2 | 4 | 64 | 64 | 1 | CC(C)[C@@H]1NC(=O)[C@@](C)(NC(=O)[C@H](CO)NC(=O)[C@H](CCCCN)NC(=O)CNC(=O)[C@H](Cc2ccccc2)NC(=O)[C@H](CCCCN)NC(=O)[C@H](CCCCN)NC(=O)[C@H](CCCCN)NC(=O)[C@H](CCCCN)NC(=O)[C@H](CN)NC(=O)[C@]2(C)CCCC=CCCC[C@](C)(NC(=O)CN)C(=O)NCC(=O)N[C@@H](CCCCN)C(=O)N[C@@H](Cc3ccccc3)C(=O)N2)CCCC=CCCC[C@@](C)(C(=O)N[C@@H](C)C(=O)N[C@@H](CCCCN)C(=O)N[C@@H](CCCCN)C(N)=O)NC(=O)[C@H](CCC(=O)O)NC(=O)CNC1=O [compound 87] (H-G[S5]GKF[S5][Dap]KKKKFGKS[S5]VGE[S5]AKK-NH2; staple 2-6, 16-20) | > 200
